Test [1] in a line: DRUGMATRIX: Purinergic P2X radioligand binding (ligand: [3H] alpha, beta-Methylene-ATP). It counts as cell membranes, Oryctolagus cuniculus, New Zealand albino, Urinary bladder, Membrane. Particulars: Not Active = under 50% inhibition at 10 µM.
In the next test the target is T1, Neutrophil elastase (Homo sapiens, UniProt P08246).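 Further: inhibition of neutrophil elastase enzyme activity, measured with a p-nitroanilide-linked peptide substrate; in other assays of this panel Not Active means under 50% inhibition at 10 µM.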
T1 sequence (P08246 whole entry): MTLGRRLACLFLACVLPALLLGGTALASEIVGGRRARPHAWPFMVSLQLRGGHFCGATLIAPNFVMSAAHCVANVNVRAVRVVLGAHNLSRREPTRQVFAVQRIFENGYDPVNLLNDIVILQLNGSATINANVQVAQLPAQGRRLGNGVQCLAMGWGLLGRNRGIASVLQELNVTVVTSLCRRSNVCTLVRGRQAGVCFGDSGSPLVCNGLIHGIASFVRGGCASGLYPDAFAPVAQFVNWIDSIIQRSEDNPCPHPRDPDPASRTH
The class given is tissue-based.

Another test concerns the target T2, Endothelin-1 receptor (Homo sapiens, UniProt P25101). Further: in other assays of this panel Not Active means under 50% inhibition at 10 µM.
T2 sequence (P25101 whole entry): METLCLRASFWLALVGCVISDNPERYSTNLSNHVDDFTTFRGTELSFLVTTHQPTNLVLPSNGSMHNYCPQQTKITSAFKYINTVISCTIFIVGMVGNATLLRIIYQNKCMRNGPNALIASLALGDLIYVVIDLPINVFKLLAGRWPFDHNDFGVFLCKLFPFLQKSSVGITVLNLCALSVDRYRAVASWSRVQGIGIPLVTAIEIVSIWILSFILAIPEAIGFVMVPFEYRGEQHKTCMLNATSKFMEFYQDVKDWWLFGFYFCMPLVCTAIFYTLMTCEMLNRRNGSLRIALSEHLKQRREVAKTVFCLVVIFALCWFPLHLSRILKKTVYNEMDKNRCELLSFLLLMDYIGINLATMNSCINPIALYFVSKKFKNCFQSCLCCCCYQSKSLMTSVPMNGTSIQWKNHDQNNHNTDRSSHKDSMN
It counts as cell membranes, Membrane. The settings on record: cho-k1.

The target in a further test is Substance-P receptor (Homo sapiens, UniProt P25103). The class given is cell membranes, CHO, Membrane. The settings on record: cho. Further: in other assays of this panel Not Active means under 50% inhibition at 10 µM.
A further test concerns the target Adenosine receptor A2a (Homo sapiens, UniProt P29274). Briefly: DRUGMATRIX: Adenosine A2A radioligand binding (ligand: […]). It counts as cell membranes, HEK293, Membrane. Particulars: hek293; Not Active = under 50% inhibition at 10 µM.
Test [2] deals with Protein kinase C alpha type (Homo sapiens, UniProt P17252). The class given is cell-based. The settings on record: sf9.
Test [3] concerns the target Vascular endothelial growth factor receptor 1 (Homo sapiens, UniProt P17948). The experiment in a line: biochemical. The class given is cell-based, HUVEC. Particulars: huvec. Further: in other assays of this panel Not Active means under 50% inhibition at 10 µM.
For test [4], the target named is 5-hydroxytryptamine receptor 1B (Rattus norvegicus, UniProt P28564). It counts as cell membranes, Wistar, Cerebral cortex, Membrane. Further: in other assays of this panel Not Active means under 50% inhibition at 10 µM.

The structures appear in SMILES notation.

5-hydroxytryptamine receptor 1B, sequence (P28564 whole entry): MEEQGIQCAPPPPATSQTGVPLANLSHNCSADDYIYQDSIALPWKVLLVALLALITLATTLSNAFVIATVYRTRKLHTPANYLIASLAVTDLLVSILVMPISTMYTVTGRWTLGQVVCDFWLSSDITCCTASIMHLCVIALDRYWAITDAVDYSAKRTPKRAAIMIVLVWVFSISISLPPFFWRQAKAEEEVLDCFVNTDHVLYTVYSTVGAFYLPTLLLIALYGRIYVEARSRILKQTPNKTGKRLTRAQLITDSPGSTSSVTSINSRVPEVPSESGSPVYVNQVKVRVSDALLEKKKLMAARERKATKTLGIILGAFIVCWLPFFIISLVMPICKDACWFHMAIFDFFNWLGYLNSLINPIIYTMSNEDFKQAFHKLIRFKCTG
Substance-P receptor, sequence (P25103 whole entry): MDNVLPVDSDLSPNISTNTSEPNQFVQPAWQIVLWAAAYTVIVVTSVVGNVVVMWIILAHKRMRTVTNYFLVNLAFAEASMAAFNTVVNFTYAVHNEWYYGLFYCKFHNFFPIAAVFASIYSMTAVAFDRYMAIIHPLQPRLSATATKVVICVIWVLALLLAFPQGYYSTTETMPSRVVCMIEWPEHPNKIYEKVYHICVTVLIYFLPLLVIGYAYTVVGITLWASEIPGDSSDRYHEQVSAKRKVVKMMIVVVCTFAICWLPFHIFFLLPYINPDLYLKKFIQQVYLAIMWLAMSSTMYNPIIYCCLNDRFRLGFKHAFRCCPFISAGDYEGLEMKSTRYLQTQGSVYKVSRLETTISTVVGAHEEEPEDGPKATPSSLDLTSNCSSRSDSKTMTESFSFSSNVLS
Vascular endothelial growth factor receptor 1, sequence (P17948 whole entry): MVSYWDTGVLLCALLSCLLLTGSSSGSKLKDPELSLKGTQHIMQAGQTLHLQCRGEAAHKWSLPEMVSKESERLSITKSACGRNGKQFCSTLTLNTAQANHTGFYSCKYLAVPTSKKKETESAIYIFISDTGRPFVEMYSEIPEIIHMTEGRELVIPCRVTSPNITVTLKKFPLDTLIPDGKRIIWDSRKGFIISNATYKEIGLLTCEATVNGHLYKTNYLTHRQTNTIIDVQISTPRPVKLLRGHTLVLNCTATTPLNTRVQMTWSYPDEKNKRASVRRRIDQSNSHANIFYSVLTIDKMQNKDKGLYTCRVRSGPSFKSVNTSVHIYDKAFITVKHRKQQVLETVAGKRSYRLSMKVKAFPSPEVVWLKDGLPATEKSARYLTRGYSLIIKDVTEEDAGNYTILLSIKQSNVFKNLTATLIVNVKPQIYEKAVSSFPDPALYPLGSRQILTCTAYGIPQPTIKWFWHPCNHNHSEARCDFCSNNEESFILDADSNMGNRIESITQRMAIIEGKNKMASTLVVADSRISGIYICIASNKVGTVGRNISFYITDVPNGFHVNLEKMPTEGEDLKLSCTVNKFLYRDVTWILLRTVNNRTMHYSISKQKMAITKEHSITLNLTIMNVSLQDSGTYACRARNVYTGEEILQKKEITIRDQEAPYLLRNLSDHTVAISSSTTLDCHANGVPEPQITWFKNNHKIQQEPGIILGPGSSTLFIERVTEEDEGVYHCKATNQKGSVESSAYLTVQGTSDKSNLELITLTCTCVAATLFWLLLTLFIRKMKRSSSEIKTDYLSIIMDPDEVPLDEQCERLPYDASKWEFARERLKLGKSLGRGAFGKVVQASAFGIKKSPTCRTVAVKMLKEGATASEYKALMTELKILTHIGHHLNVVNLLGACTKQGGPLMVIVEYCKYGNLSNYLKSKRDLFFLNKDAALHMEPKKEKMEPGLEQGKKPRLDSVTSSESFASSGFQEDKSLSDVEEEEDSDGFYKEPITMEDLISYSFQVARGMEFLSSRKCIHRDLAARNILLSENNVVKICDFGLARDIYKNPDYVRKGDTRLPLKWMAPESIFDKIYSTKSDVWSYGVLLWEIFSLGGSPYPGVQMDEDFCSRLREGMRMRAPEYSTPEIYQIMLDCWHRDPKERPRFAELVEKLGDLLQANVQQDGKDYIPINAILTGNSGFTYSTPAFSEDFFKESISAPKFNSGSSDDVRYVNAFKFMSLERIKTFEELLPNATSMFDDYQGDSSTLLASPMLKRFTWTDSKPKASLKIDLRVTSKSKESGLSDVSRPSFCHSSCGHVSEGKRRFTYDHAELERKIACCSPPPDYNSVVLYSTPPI
Adenosine receptor A2a, sequence (P29274 whole entry): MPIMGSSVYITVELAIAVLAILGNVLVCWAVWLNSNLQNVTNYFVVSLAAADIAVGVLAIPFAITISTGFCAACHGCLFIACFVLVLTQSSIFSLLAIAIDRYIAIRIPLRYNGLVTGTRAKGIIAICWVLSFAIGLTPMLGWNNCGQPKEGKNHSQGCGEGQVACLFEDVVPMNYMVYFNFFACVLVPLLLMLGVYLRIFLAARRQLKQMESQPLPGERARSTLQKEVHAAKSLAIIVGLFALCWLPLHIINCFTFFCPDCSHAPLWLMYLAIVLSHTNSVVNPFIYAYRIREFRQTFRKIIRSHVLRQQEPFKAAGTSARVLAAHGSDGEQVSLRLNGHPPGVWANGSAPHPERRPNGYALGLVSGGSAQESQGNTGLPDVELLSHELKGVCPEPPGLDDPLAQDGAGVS

As a reminder, the IC50 is the midpoint of a concentration-inhibition curve. By Ki is commonly meant the equilibrium dissociation constant of an inhibitor or competing ligand from its target. As for `CO[C@@H]1[C@@H](OC)[C@H](C)[C@@](O)(CC(=O)O)O[C@H]1[C@H](C)[C@H]1O[C@@]2(CC[C@@](C)([C@H]3CC[C@@](C)([C@@H]4O[C@@H]([C@H]5O[C@](C)(O)[C@H](C)C[C@@H]5C)C[C@@H]4O[C@@H]4C[C@H](OC)[C@@H](OC)[C@H](C)O4)O3)O2)C[C@H](O)[C@H]1C` [MADURAMICIN ACID], the half-inhibitory concentration (IC50) entry (in test [1]; at Neutrophil elastase; at Endothelin-1 receptor; on Substance-P receptor; on Adenosine receptor A2a; in test [2]) was “Not Active” throughout. Also, the figures for the IC50 result in test [3] and in test [4] (read-out: IC50) were “Not Active” and 2.98 nM, respectively. Besides, the Ki result in test [1] was “Not Active”; in test [4] (read-out: Ki), 1.35 nM.

In the case of `COc1c2occc2cc2ccc(=O)oc12` [METHOXSALEN], the IC50 entry (in test [1]; against Neutrophil elastase; on Endothelin-1 receptor; on Substance-P receptor; on Adenosine receptor A2a; in test [2]) was “Not Active” each time. Besides, the IC50 entry in test [3] and in test [4] was “Not Active” throughout. Further, the Ki result in test [1] is given as “Not Active”.

For `C[C@H]1C[C@@H]2[C@H]([C@@H](O)C[C@@]3(C)[C@H]2CC[C@]3(O)C(=O)CO)[C@@]2(C)C=CC(=O)C=C12` [METHYLPREDNISOLONE], the concentration for half-maximal inhibition (IC50) result (in test [1]; against Neutrophil elastase; on Endothelin-1 receptor; against Substance-P receptor; at Adenosine receptor A2a; in test [2]) was “Not Active” in each case. The IC50 result in test [3] and in test [4] was “Not Active” each time. Besides, the Ki result in test [1] was “Not Active”.

Consider `Cc1cccc(C)c1OCC(C)N` (stereo not drawn) [MEXILETINE], for which the IC50 entry (in test [1]; at Neutrophil elastase; on Endothelin-1 receptor; against Substance-P receptor; at Adenosine receptor A2a; in test [2]) was “Not Active” each time. For the same compound, the IC50 result in test [3] and in test [4] was “Not Active” each time. For the same compound, the inhibition constant (Ki) entry in test [1] is “Not Active”.

Turning to `Nc1cc(N2CCCCC2)nc(N)[n+]1[O-]` [MINOXIDIL], the IC50 result (in test [1]; against Neutrophil elastase; at Endothelin-1 receptor; against Substance-P receptor; at Adenosine receptor A2a; in test [2]) was “Not Active” in each case. Further, the concentration for half-maximal inhibition (IC50) result in test [3] and in test [4] was “Not Active” each time. Moreover, the Ki entry in test [1] is “Not Active”.

Consider `CO[C@H]1/C=C/O[C@@]2(C)Oc3c(C)c(O)c4c(O)c(c(/C=N/N5CCN(C6CCCC6)CC5)c(O)c4c3C2=O)NC(=O)/C(C)=C\C=C\[C@H](C)[C@H](O)[C@@H](C)[C@@H](O)[C@@H](C)[C@H](OC(C)=O)[C@@H]1C` [RIFAPENTINE], for which the concentration for half-maximal inhibition (IC50) result (in test [1]; against Neutrophil elastase; against Endothelin-1 receptor; at Substance-P receptor; on Adenosine receptor A2a; in test [2]) was “Not Active” throughout. The half-maximal inhibitory concentration (IC50) entry in test [3] and in test [4] was “Not Active” in each case. In test [1], the inhibitory constant (Ki) entry is recorded as “Not Active”.

On to `CCCCOc1cc(CC2CNC(=O)N2)ccc1OC` (stereo not drawn) [RO-201724], for which the half-inhibitory concentration (IC50) result (in test [1]; at Neutrophil elastase; against Endothelin-1 receptor; against Substance-P receptor; on Adenosine receptor A2a; in test [2]) was “Not Active” in each case. In addition, the IC50 entry in test [3] and in test [4] was “Not Active” each time. The Ki entry in test [1] is reported as “Not Active”.

For the compound `CC[C@@H](C(=O)[C@@H](C)[C@@H](O)[C@H](C)[C@@H]1O[C@@H]([C@@H](CC)C(=O)O)CC[C@@H]1C)[C@H]1O[C@]2(C=C[C@@H](O)[C@]3(CC[C@@](C)([C@H]4CC[C@](O)(CC)[C@H](C)O4)O3)O2)[C@H](C)C[C@@H]1C` [SALINOMYCIN], the concentration for half-maximal inhibition (IC50) result (in test [1]; on Neutrophil elastase; at Endothelin-1 receptor; against Substance-P receptor; at Adenosine receptor A2a; in test [2]) was “Not Active” throughout. Also, the IC50 entry in test [3] and in test [4] was “Not Active” in each case. Besides, the Ki result in test [1] is recorded as “Not Active”.

Take `O=C(Oc1ccccc1C(=O)O)c1ccccc1O` [SALSALATE]: the half-inhibitory concentration (IC50) entry (in test [1]; at Neutrophil elastase; on Endothelin-1 receptor; at Substance-P receptor; on Adenosine receptor A2a; in test [2]) was “Not Active” in each case. In addition, the IC50 result in test [3] and in test [4] was “Not Active” in each case. Also, the inhibition constant (Ki) entry in test [1] was “Not Active”.

Turning to `O=C(O)c1cn(-c2ccc(F)cc2)c2cc(N3CCNCC3)c(F)cc2c1=O` [SARAFLOXACIN], the half-inhibitory concentration (IC50) entry (in test [1]; against Neutrophil elastase; against Endothelin-1 receptor; against Substance-P receptor; on Adenosine receptor A2a; in test [2]) was “Not Active” in each case. The IC50 entry in test [3] and in test [4] was “Not Active” throughout. Besides, the Ki entry in test [1] is given as “Not Active”.

Take `CC(C)NCC(O)c1ccc(NS(C)(=O)=O)cc1` (stereo not drawn) [SOTALOL]: the IC50 result (in test [1]; against Neutrophil elastase; on Endothelin-1 receptor; against Substance-P receptor; at Adenosine receptor A2a; in test [2]) was “Not Active” throughout. For the same compound, the IC50 result in test [3] and in test [4] was “Not Active” each time. Besides, in test [1], the inhibition constant Ki result is “Not Active”.

As for `O.O.O.O.O.O.[Cl-].[Cl-].[Sr+2]` [STRONTIUM CHLORIDE HEXAHYDRATE], the IC50 result (in test [1]; against Neutrophil elastase; on Endothelin-1 receptor; against Substance-P receptor; on Adenosine receptor A2a; in test [2]) was “Not Active” each time. Further, the IC50 entry in test [3] and in test [4] was “Not Active” throughout. In addition, the inhibitory constant (Ki) entry in test [1] is on record as “Not Active”.

As for `O=C1C(CC[S+]([O-])c2ccccc2)C(=O)N(c2ccccc2)N1c1ccccc1` (stereo not drawn) [SULFINPYRAZONE], the 50% inhibitory concentration (IC50) entry (in test [1]; on Neutrophil elastase; on Endothelin-1 receptor; against Substance-P receptor; at Adenosine receptor A2a; in test [2]) was “Not Active” each time. Further, the IC50 result in test [3] and in test [4] was “Not Active” each time. Besides, the Ki result in test [1] was “Not Active”.

Consider `NC(=O)N1C(=O)/C(=C(\O)c2cccs2)c2cc(Cl)ccc21` [TENIDAP], for which the half-inhibitory concentration (IC50) entry (in test [1]; against Neutrophil elastase; on Endothelin-1 receptor; against Substance-P receptor; at Adenosine receptor A2a; in test [2]) was “Not Active” throughout. For the same compound, the IC50 result in test [3] and in test [4] was “Not Active” in each case. Besides, in test [1], the Ki result is recorded as “Not Active”.

`COc1cc2nc(N3CCN(C(=O)C4CCCO4)CC3)nc(N)c2cc1OC` (stereo not drawn) [TERAZOSIN]: the IC50 result (in test [1]; against Neutrophil elastase; on Endothelin-1 receptor; at Substance-P receptor; at Adenosine receptor A2a; in test [2]) was “Not Active” each time. In addition, the IC50 entry in test [3] and in test [4] was “Not Active” in each case. Moreover, the Ki result in test [1] is “Not Active”.

On to `CN(C/C=C/C#CC(C)(C)C)Cc1cccc2ccccc12` [TERBINAFINE], for which the IC50 result (in test [1]; on Neutrophil elastase; on Endothelin-1 receptor; against Substance-P receptor; at Adenosine receptor A2a; in test [2]) was “Not Active” throughout. For the same compound, the IC50 entry in test [3] and in test [4] was “Not Active” throughout. Also, in test [1], the Ki result is given as “Not Active”.

In the case of `CCCCNc1ccc(C(=O)OCCN(C)C)cc1` [TETRACAINE], the IC50 entry (in test [1]; against Neutrophil elastase; against Endothelin-1 receptor; at Substance-P receptor; on Adenosine receptor A2a; in test [2]) was “Not Active” in each case. The IC50 entry in test [3] and in test [4] was “Not Active” each time. In test [1], the inhibition constant Ki result is on record as “Not Active”.

Consider `CS(=O)(=O)c1ccc([C@@H](O)[C@@H](CO)NC(=O)C(Cl)Cl)cc1` [THIAMPHENICOL], for which the IC50 result (in test [1]; against Neutrophil elastase; on Endothelin-1 receptor; against Substance-P receptor; on Adenosine receptor A2a; in test [2]) was “Not Active” in each case. Also, the IC50 result in test [3] and in test [4] was “Not Active” in each case. For the same compound, the inhibition constant Ki result in test [1] is “Not Active”.

The values are drawn from ChEMBL document CHEMBL1909046, “DrugMatrix in vitro pharmacology data”.
